Results taken from patent US12568972B2, “Pyridazinol compounds and derivatives, preparation methods, herbicidal compositions and applications thereof” (Qingdao Kingagroot Chemical Compound Co., Ltd., priority 2018, dated 2026).
Where two headings read alike, the source gives them in different places.

Key:
Assay type in all cases: in vivo
Chenopodiaceae = test: Post-emergence test, weed control effect; conditions: after 3 weeks; for inhibition at 300 g/ha: 504 h, fresh weight inhibition, read-out: activity level of harmful plant destruction (growth inhibition rate), Chenopodiaceae
In short: (§1)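 Activity is expressed as a level from 0 (no effect) to 10 (plant dead), each step matching a further 10% fresh-weight inhibition, assessed 3 weeks post-treatment. Treatment: spray at 2-3 leaf stage of pot-grown plants, compound in acetone, Tween-80 and water with 80% vegetable oil methyl ester synergist at 1500 g/ha.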

Echinochloa crus-galli = test: Post-emergence test, weed control effect; conditions: 504 h, Dose 300 g/ha, after 3 weeks, fresh weight inhibition, read-out: activity level of harmful plant destruction (growth inhibition rate), Echinochloa crus-galli
In short: as §1

Veronica polita = test: Post-emergence test, weed control effect; conditions: after 3 weeks; for inhibition at 300 g/ha: Veronica polita, 504 h, fresh weight inhibition, read-out: activity level of harmful plant destruction (growth inhibition rate), Veronica polita
In short: as §1

Setaria viridis = test: Post-emergence test, weed control effect; conditions: 504 h, Dose 300 g/ha, after 3 weeks, fresh weight inhibition, read-out: activity level of harmful plant destruction (growth inhibition rate), Setaria viridis
In short: as §1

Galium aparine = test: Post-emergence test, weed control effect; conditions: 504 h, Dose 300 g/ha, after 3 weeks, fresh weight inhibition, read-out: activity level of harmful plant destruction (growth inhibition rate), Galium aparine
In short: as §1

Rorippa indica = test: Post-emergence test, weed control effect; conditions: after 3 weeks; for inhibition at 300 g/ha: Rorippa indica, 504 h, fresh weight inhibition, read-out: activity level of harmful plant destruction (growth inhibition rate), Rorippa indica
In short: as §1

Amaranthus retroflexus = test: Post-emergence test, weed control effect; conditions: after 3 weeks
In short: as §1

weeds = test: Control effect and synergistic effect of the mixture of (i) and (ii), postemergence (Gowing method); conditions: postemergence, 20 days after treatment
From the text: Wherein, in the formula, X represented the fresh weight inhibition rate of the active ingredient A in a dosage of P, and Y represented the fresh weight inhibition rate of the active ingredient B in a dosage of Q. The statistic results are shown in Table 6.

[1] = Abutilon theophrasti, 30 g a.i./ha
[2] = Abutilon theophrasti, 50 g a.i./ha
[3] = Sisymbrium sophia, 200 g a.i./ha
[4] = post-emergence, 480 h, Abutilon theophrasti, 30 g a.i./ha, read-out: Inhibitory effect of component (ii) when applied alone at same dose

CCCCCCCCSC(=O)Oc1cc(Cl)nnc1-c1ccccc1 [B, reference compound]
inhibition at 300 g/ha (Chenopodiaceae): 30 to 40%
inhibition at 300 g/ha (Echinochloa crus-galli): 0%
inhibition at 300 g/ha (Veronica polita): 30 to 40%
inhibition at 300 g/ha (Setaria viridis): 30 to 40%
inhibition at 300 g/ha (Galium aparine): 40 to 50%
inhibition at 300 g/ha (Rorippa indica): 30 to 40%

Oc1cc(C(F)(F)F)nnc1-c1ccccc1 [Compound 1]
weed control effect (activity level), Chenopodiaceae (Chenopodiaceae; dose 2000 g/ha): 8 (Level 8: above 80% growth inhibition rate)
weed control effect (activity level), Veronica polita (Veronica polita; dose 2000 g/ha): 10
weed control effect (activity level), Amaranthus retroflexus (Amaranthus retroflexus; dose 2000 g/ha): 10
weed control effect (activity level), Rorippa indica (Rorippa indica; dose 2000 g/ha): 10
Inhibitory effect of component (i) when applied alone at same dose (weeds; [1]): 20
Inhibitory effect of component (i) when applied alone at same dose (weeds; Galinsoga parviflora, 30 g a.i./ha): 30
Inhibitory effect of component (i) when applied alone at same dose (weeds; Galium aparine, 30 g a.i./ha): 20
Inhibitory effect of component (i) when applied alone at same dose (weeds; Sisymbrium sophia, 30 g a.i./ha): 20
Inhibitory effect of component (i) when applied alone at same dose (weeds; Veronica polita, 30 g a.i./ha): 30

CCn1ncc(C(=O)c2ccc(S(C)(=O)=O)c(OCCOC)c2C)c1OC(C)OC(=O)OC (stereo not shown) [Tolpyralate]
Inhibitory effect of component (ii) when applied alone at same dose (weeds; Abutilon theophrasti, 5 g a.i./ha): 50%

CS(=O)(=O)c1ccc(C(=O)C2C(=O)CCCC2=O)c(Cl)c1OCCC1OCCO1 [Lancotrione]
Inhibitory effect of component (ii) when applied alone at same dose (weeds; [2]): 40%

COc1c(Cl)ccc(Cl)c1C(=O)O [Dicamba]
pest or weed control at 10 g/ha (weeds; Descurainia sophia, post-emergence, 480 h, Sisymbrium sophia, 10 g a.i./ha, read-out: Inhibitory effect of component (ii) when applied alone at same dose): 30%

COc1c(Cl)ccc(-c2nc(C(=O)OCc3ccccc3)c(Cl)c(N)c2F)c1F [Florpyrauxifen-benzyl]
Inhibitory effect of component (ii) when applied alone at same dose (weeds; Abutilon theophrasti, 2 g a.i./ha): 45%

O=C(O)CCCOc1ccc(Cl)cc1Cl [2,4-DB]
Inhibitory effect of component (ii) when applied alone at same dose (weeds; [3]): 50%

Cc1cc(Cl)ccc1OCCCC(=O)O [MCPB]
Inhibitory effect of component (ii) when applied alone at same dose (weeds; [3]): 40%

Oc1cc(Cl)nnc1-c1ccccc1 [A, reference compound]
inhibition at 300 g/ha (Chenopodiaceae): 50 to 60%
inhibition at 300 g/ha (Echinochloa crus-galli): 0%
inhibition at 300 g/ha (Veronica polita): 30 to 40%
inhibition at 300 g/ha (Setaria viridis): 30 to 40%
inhibition at 300 g/ha (Galium aparine): 50 to 60%
inhibition at 300 g/ha (Rorippa indica): 20 to 30%

Cc1nn(C)c(O)c1C(=O)c1ccc(C(F)(F)F)cc1S(C)(=O)=O [Pyrasulfotole]
Inhibitory effect of component (ii) when applied alone at same dose (weeds; Abutilon theophrasti, 15 g a.i./ha): 50%

CS(=O)(=O)c1ccc(C(=O)C2=C(Sc3ccccc3)C3CCC(C3)C2=O)c(Cl)c1 (stereo not shown) [Benzobicyclon]
Inhibitory effect of component (ii) when applied alone at same dose (weeds; Abutilon theophrasti, 150 g a.i./ha): 50%

Oc1cc(C(F)(F)F)nnc1C1=CCCCC1 [Compound 1524]
inhibition at 300 g/ha (Chenopodiaceae): 100%
weed control effect (activity level), Chenopodiaceae (Chenopodiaceae; Dose 3000 g/ha): 10
weed control effect (activity level), Veronica polita (Veronica polita; Dose 3000 g/ha): 10
inhibition at 300 g/ha (Veronica polita): 90 to 100%
weed control effect (activity level), Amaranthus retroflexus (Amaranthus retroflexus; Dose 3000 g/ha): 10
inhibition at 300 g/ha (Setaria viridis): 100%
inhibition at 300 g/ha (Galium aparine): 90 to 100%
weed control effect (activity level), Rorippa indica (Rorippa indica; Dose 3000 g/ha): 10
inhibition at 300 g/ha (Rorippa indica): 100%

CNc1cnn(-c2cccc(C(F)(F)F)c2)c(=O)c1Cl [Norflurazon]
pest or weed control at 300 g/ha (weeds; post-emergence, 480 h, Abutilon theophrasti, 300 g a.i./ha, read-out: Inhibitory effect of component (ii) when applied alone at same dose): 50%

CS(=O)(=O)c1ccc(C(=O)C2C(=O)CCCC2=O)c([N+](=O)[O-])c1 [Mesotrione]
pest or weed control at 30 g/ha (weeds; [4]): 40%

Fluridone
Inhibitory effect of component (ii) when applied alone at same dose (weeds; Abutilon theophrasti, 100 g a.i./ha): 45%

CC(Oc1ccc(Cl)cc1Cl)C(=O)O (stereo not shown) [Dichlorprop]
pest or weed control at 100 g/ha (weeds; Descurainia sophia, post-emergence, 480 h, Sisymbrium sophia, 100 g a.i./ha, read-out: Inhibitory effect of component (ii) when applied alone at same dose): 40%

Cn1[nH]c(C2CC2)c(C(=O)c2ccc(C(F)(F)F)c(N3CCCCC3=O)c2Cl)c1=O [Huanbifucaotong]
Inhibitory effect of component (ii) when applied alone at same dose (weeds; [1]): 30%

CS(=O)(=O)c1cc(C(F)(F)F)ccc1C(=O)c1cnoc1C1CC1 [Isoxaflutole]
pest or weed control at 30 g/ha (weeds; [4]): 30%

O=C(O)COc1nc(Cl)c(Cl)cc1Cl [Triclopyr]
pest or weed control at 50 g/ha (weeds; post-emergence, 480 h, Abutilon theophrasti, 50 g a.i./ha, read-out: Inhibitory effect of component (ii) when applied alone at same dose): 35%

CCC(Oc1ccc(F)c(C(F)(F)F)c1)C(=O)NCc1ccccc1 (stereo not shown) [Beflubutamid]
Inhibitory effect of component (ii) when applied alone at same dose (weeds; Abutilon theophrasti, 200 g a.i./ha): 40%

CC(C)CCCCCOC(=O)COc1ccc(Cl)cc1Cl [2,4-D iso-octyl ester]
Inhibitory effect of component (ii) when applied alone at same dose (weeds; Sisymbrium sophia, 50 g a.i./ha): 40%

Nc1c(Cl)c(F)nc(OCC(=O)O)c1Cl [Fluroxypyr]
pest or weed control at 30 g/ha (weeds; post-emergence, 480 h, Galium aparine, 30 g a.i./ha, read-out: Inhibitory effect of component (ii) when applied alone at same dose): 40%

O=C(O)COc1nc(Cl)c(Cl)cc1Cl [Trichlopyr]
Inhibitory effect of component (ii) when applied alone at same dose (weeds; [2]): 40%
